Reference: the METLIN SMRT retention time set (Domingo-Almenara et al. 2019)

Assay: gradient 5% acetonitrile 3 min, to 50% in 2 min, to 85% in 15 min, held 3 min, 100 µL/min
Conditions: column: Zorbax Extend-C18 2.1 x 50 mm; eluents: water / acetonitrile, 0.1% formic acid
In short: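 Retention times come from adduct peaks that were picked computationally and then checked by hand. The standards, pure and pooled in mixtures of ~100 molecules, were run on a Zorbax Extend-C18 column (2.1 × 50 mm, 1.8 μm) at 100 μL/min with water and acetonitrile, each with 0.1% formic acid. Detection was by quadrupole time-of-flight mass spectrometry in positive and negative ionization mode, with a dead volume of 40 μL and a dwell volume of 900 μL.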

Compound | RP-LC retention time
Cc1nnc(-c2cn(CC(=O)Nc3ccccc3Br)c3ccccc23)o1 | 829 s
CC(C)CN1CCN(C(=O)c2ccc3[nH]c4c(c3c2)CN(C(=O)C2CCC2)CC4)CC1 | 621 s
CN(C)C(=O)c1cccnc1OC1CCN(C(=O)c2ccc(Br)o2)C1 (stereo unspecified) | 663 s
O=C1NC2(CCN(C(=O)c3ccc(F)cc3)CC2)N=C1c1cccc(F)c1 | 635 s
CCSc1nnc(NC(=O)CSc2ncnc3ccccc23)s1 | 733 s
O=C(Cc1cccs1)N1CCN(c2ccc(-c3ccco3)nn2)CC1 | 734 s
Cc1ccc(S(=O)(=O)CCc2noc(-c3ccc4c(c3)OCO4)n2)cc1 | 931 s
CCc1nnc2nc(N3CCN(C(=O)Cc4cc(OC)cc(OC)c4)CC3)cc(C)n12 | 623 s
Cc1ccc(S(=O)(=O)N2CCC(CCNC(=O)NC3CCCC3)CC2)cc1 | 894 s
CC(C)CCNC(=O)C1CCN(c2nc3ccsc3c(=O)n2Cc2ccccc2)CC1 | 890 s
Cc1ccccc1CN1CCN(CC(=O)Nc2cccc(Cl)c2C)C(=O)C1=O | 792 s
COc1ccc(-n2nc3c(N4CCCC(C(=O)NCCc5ccco5)C4)nnc(C)c3c2C)cc1 (stereo unspecified) | 712 s
Cc1nccn1Cc1noc(-c2ccccc2)n1 | 600 s
CC1=CC(=O)C2=C(C)C[C@H](O)[C@H]3[C@H](C)C(=O)O[C@@H]3C12 (stereo partly specified) | 725 s
CC(C)OCCCNC(=O)CC1=C2CCCCC2NC1=O (stereo unspecified) | 628 s
COc1ccc(N2C(=O)C3N=NN(Cc4nc(-c5ccccc5Cl)no4)C3C2=O)cc1OC (stereo unspecified) | 880 s
CCc1nnc2nc(N3CCN(C(=O)c4cccs4)CC3)cc(C)n12 | 592 s
O=C1COc2ccc(S(=O)(=O)N3CCC(C(=O)NCc4ccc5c(c4)OCO5)CC3)cc2N1 | 708 s
COc1cccc(CN2CCCCCCNC(=O)[C@@H]3CCC[C@@H]32)n1 | 660 s
O=S(=O)(NC1CCCCCC1)c1ccc(-c2nnc(C3CC3)o2)o1 | 920 s
CCc1ccc(-c2noc(Cn3cnc4c(nnn4-c4ccccc4OC)c3=O)n2)cc1 | 1040 s
O=C(Nc1ccc(F)c(F)c1)c1cnc(-c2ccc(F)cc2)nc1-c1ccncc1 | 985 s

Compound | RP-LC retention time
O=c1c2sccc2n(Cc2nc(-c3ccc(Cl)cc3)no2)c(=O)n1-c1cccc(F)c1 | 1070 s
COc1ccc(-c2noc(Cc3nnc(-c4cccc(Cl)c4)o3)n2)cc1F | 1060 s
COCCCNC(=O)N1CCCC1c1nc(-c2cccc(C)c2)no1 (stereo unspecified) | 810 s
COc1ccc(-c2noc(Cn3nc(-c4ccc(Cl)cc4)ccc3=O)n2)cc1 | 1080 s
O=C(Nc1ccc(F)c(F)c1)c1cccn1Cc1noc(-c2ccccc2)n1 | 1100 s
COC(=O)c1cc(C2CC2)nc2c1c(=O)n(Cc1ccccc1F)c(=O)n2C | 1080 s
CCOC(=O)c1cccc(NC(=O)Nc2cccc(-c3ccc(N4CCOCC4)nn3)c2)c1 | 742 s
CCCCS(=O)(=O)c1cc2c(cc1NC(=O)c1ccccc1)n(C)c(=O)n2C | 887 s
COc1ccc(NC(=O)CC2=C3CCCCC3NC2=O)cn1 (stereo unspecified) | 640 s
Cc1noc([C@@H]2CN(C(=O)c3cc(C)n(Cc4ccco4)c3C)C[C@H]2C(N)=O)n1 | 686 s
COc1ccc(-c2csc3c(=O)n(Cc4ccccc4)cnc23)cc1OC | 948 s
CNC(=O)c1nc(C(C)(C)NC(=O)c2cnccn2)nc2c1OCO2 | 631 s
CCCSCCCNC(=O)c1cc2n(n1)CCCN(Cc1ccc(C)cc1)C2=O | 852 s
CCN1C(=O)c2cc(C(=O)Nc3ccc(C)c(C)c3)nn2CC1(C)C(=O)NC1CCCC1 (stereo unspecified) | 884 s
CCN(CC)S(=O)(=O)c1ccc2c(c1)N(CC(=O)NCCc1ccccc1)C(=O)C1CCCCN21 (stereo unspecified) | 1000 s
Cc1nc(C2CC23CCN(S(=O)(=O)c2cccnc2)CC3)no1 (stereo unspecified) | 726 s
CCn1cc(-c2nc(-c3ccccn3)no2)c(=O)c2cc(F)c(N3CCOCC3)cc21 | 744 s
COCc1nc2cccnc2n1C1CCN(C(=O)Nc2ccc(Cl)cc2)CC1 | 744 s
CCn1c(CC2CCN(C(=O)NCC(=O)OC)C2)nc2cccnc21 (stereo unspecified) | 534 s
COc1ccc(CCN2C(=O)CC(Nc3ccc(N4CCOCC4)cc3)C2=O)cc1OC (stereo unspecified) | 583 s
CC(C)n1c(N2CCN(C(=O)COc3ccccc3)CC2)cc(=O)n(C(C)C)c1=O | 855 s
CCc1nc2cc(-c3noc(-c4ccc(OC)nc4)n3)ccc2o1 | 1180 s

Compound | RP-LC retention time
COc1ccc(-n2cc(C(=O)Nc3cnc4ccccc4c3)nn2)cc1 | 821 s
Cc1ccc(NC(=O)C2CCN(S(=O)(=O)c3ccc4c(c3)CCCC(=O)N4)CC2)c(C)c1 | 774 s
CCOCCCNC(=O)CCc1nnc2ccc(-c3ccc(C)c(C)c3)nn12 | 754 s
O=C(CSCCSCC(=O)Nc1ccccc1)Nc1ccccc1 | 775 s
COc1ccc(Cl)cc1S(=O)(=O)N1CCCC(C(=O)NCc2ccccn2)C1 (stereo unspecified) | 660 s
O=C(Cn1c(=O)c(S(=O)(=O)c2ccccc2)cc2ccccc21)NCc1ccccc1Cl | 895 s
O=C(NC1CCCN(c2cc(-c3ccc(F)cc3)[nH]n2)C1)c1ccc2c(c1)OCO2 (stereo unspecified) | 796 s
CCOCCOC1CCN(S(=O)(=O)c2ccc(OC)cc2)CC1 | 831 s
CCN(CCNC(=O)C1CCc2nc(N3CCOCC3)ncc2C1)c1ccccc1 (stereo unspecified) | 591 s
COCCn1ncc(N2CCC(C(=O)NCc3ccc(C)o3)C2)cc1=O (stereo unspecified) | 650 s
COc1cc(-c2nc3cc(C)ccn3c2Nc2ccc(C)cc2)ccc1O | 686 s
COc1cc(OC)cc(C(=O)N2CCc3cn(C)c4cccc(c34)C2)c1 | 952 s
COc1cccc(C2=NC3(CCN(C(=O)c4ccc5c(c4)OCO5)CC3)NC2=O)c1 | 712 s
Cc1c(Cl)cccc1S(=O)(=O)NCC1CCN(C(=O)c2cccn(C)c2=O)CC1 | 654 s
Cc1ccccc1CNC(=O)C1(C)CCN(S(=O)(=O)c2cccc(Cl)c2C)CC1 | 1090 s
COc1cccc(/C=N\NC(=O)C(C)SC(C)C(=O)N/N=C/c2cccc(OC)c2)c1 (stereo unspecified) | 769 s
CN(C(=O)Cn1cnc2c(-c3ccc(Cl)cc3)csc2c1=O)c1ccccc1 | 1020 s
COc1ccc(-c2noc(-c3nn(-c4ccc(C)c(C)c4)ccc3=O)n2)cc1OC | 886 s
Cc1cc(NC(=O)Cc2nn(C)c(=O)c3ccccc23)ccc1Br | 856 s
O=C(O)c1cccn2c(=O)c3ccc(F)cc3nc12 | 687 s
Fc1ccccc1N1CCN(c2ncnc3sc4c(c23)CCC4)CC1 | 1150 s
COCCC1CCN(C(=O)c2n[nH]c3ccccc23)CC1 | 709 s
